Results as given in patent US6737383B1, “Herbicidal oxadiazolidines” (priority 1999, dated 2004).

How the values were obtained:
bamyardgrass = assay: Test B flood test barnyardgrass; format: in vivo, Echinochloa crus-galli
In short: (§1)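 Flood test on plants grown to the 2-leaf stage; treated plants kept in greenhouse twelve to sixteen days, then visually rated against controls on a 0 (no effect) to 10 (complete control) scale.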

rice = assay: Test B flood test rice; format: in vivo, Oryza sativa
In short: as §1

morningglory = assay: Test B pre/postemergence morningglory; format: in vivo, Ipomoea hederacea
In short: (§2)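 Test chemicals in a non-phytotoxic solvent mixture with surfactant were sprayed preemergence onto planted seeds and postemergence onto plants 2 to 18 cm tall (1- to 4-leaf stage). After twelve to sixteen days in a greenhouse, injury was visually rated against untreated controls from 0 (no effect) to 10 (complete control).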

pigweed = assay: Test B pre/postemergence pigweed; format: in vivo, Amaranthus retroflexus
In short: as §2

duck salad = assay: Test B flood test duck salad; format: in vivo, Heteranthera limosa
In short: as §1

wild oat = assay: Test B pre/postemergence wild oat; format: in vivo, Avena fatua
In short: as §2

purple nutsedge = assay: Test B pre/postemergence purple nutsedge; format: in vivo, Cyperus rotundus
In short: as §2

corn = assay: Test B pre/postemergence corn; format: in vivo, Zea mays
In short: as §2

smallflower flatsedge = assay: Test B flood test smallflower flatsedge; format: in vivo, Cyperus difformis
In short: as §1

surinam grass = assay: Test B pre/postemergence surinam grass; format: in vivo, Brachiaria decumbens
In short: as §2

wheat = assay: Test B pre/postemergence wheat; format: in vivo, Triticum aestivum
In short: as §2

crabgrass = assay: Test B pre/postemergence crabgrass; format: in vivo, Digitaria sanguinalis
In short: as §2

rape = assay: Test B pre/postemergence rape; format: in vivo, Brassica napus
In short: as §2

cocklebur = assay: Test B pre/postemergence cocklebur; format: in vivo, Xanthium strumarium
In short: as §2

giant foxtail = assay: Test B pre/postemergence giant foxtail; format: in vivo, Setaria faberii
In short: as §2

sugar beet = assay: Test B pre/postemergence sugar beet; format: in vivo, Beta vulgaris
In short: as §2

[1] = Rate 62 g/ha, headed Pre-emergence (flood test species), scale 0 to 10 (0 no effect, 10 complete control)
[2] = Rate 125 g/ha, Pre-emergence, flood test species, scale 0 to 10 where 0 is no effect and 10 is complete control
[3] = Rate 250 g/ha, Pre-emergence, flood-test species, scale 0 to 10, 0 is no effect, 10 is complete control
[4] = Rate 500 g/ha, headed Pre-emergence (flood test species), scale 0 to 10 (0 no effect, 10 complete control)
[5] = Postemergence, Rate 125 g/ha, scale of 0 to 10 where 0 is no effect and 10 is complete control
[6] = Preemergence, Rate 62 g/ha, scale of 0 to 10 where 0 is no effect and 10 is complete control
[7] = Preemergence, Rate 125 g/ha, 0 is no effect, 10 is complete control
[8] = Preemergence, Rate 250 g/ha, scale 0 to 10, 0 is no effect, 10 is complete control
[9] = Preemergence, Rate 500 g/ha, scale 0 to 10 (0 no effect, 10 complete control)
[10] = Rate 62 g/ha, Postemergence, scale of 0 to 10 where 0 is no effect and 10 is complete control
[11] = Rate 250 g/ha, Postemergence, scale 0 to 10, 0 is no effect, 10 is complete control
[12] = Rate 500 g/ha, Postemergence, scale 0 to 10

CC(C)N(Cc1ccccc1)C(=O)n1oc(=O)n(C(C)C)c1=O [Compound 165]
7: Crabgrass plant response rating (0 to 10 scale) (crabgrass; [7]) | Giant foxtail plant response rating (0 to 10 scale) (giant foxtail; [7])
0: Barnyardgrass plant response rating (bamyardgrass; [1]) | Barnyardgrass plant response rating (bamyardgrass; [2]) | Barnyardgrass plant response rating (bamyardgrass; [3]) | Rice plant response rating (rice; [1]) | Rice plant response rating (rice; [2]) | Rice plant response rating (rice; [3]) | Plant response rating, Rice (rice; [4]) | Morningglory plant response rating (morningglory; [6]) | Morningglory plant response rating (0 to 10 scale) (morningglory; [7]) | Morningglory plant response rating (morningglory; [8]) | Redroot pigweed plant response rating (pigweed; [6]) | Redroot pigweed plant response rating (0 to 10 scale) (pigweed; [7]) | Redroot pigweed plant response rating (pigweed; [8]) | Redroot pigweed plant response rating (pigweed; [10]) | Ducksalad plant response rating (duck salad; [1]) | Ducksalad plant response rating (duck salad; [2]) | Ducksalad plant response rating (duck salad; [3]) | Plant response rating, Ducksalad (duck salad; [4]) | Nutsedge plant response rating (purple nutsedge; [5]) | Nutsedge plant response rating (purple nutsedge; [6]) | Nutsedge plant response rating (0 to 10 scale) (purple nutsedge; [7]) | Nutsedge plant response rating (purple nutsedge; [8]) | Nutsedge plant response rating (purple nutsedge; [9]) | Nutsedge plant response rating (purple nutsedge; [10]) | Plant response rating, Nutsedge (purple nutsedge; [11]) | Nutsedge plant response rating (purple nutsedge; [12]) | Corn plant response rating (corn; [5]) | Corn plant response rating (corn; [6]) | Corn plant response rating (0 to 10 scale) (corn; [7]) | Corn plant response rating (corn; [8]) | Corn plant response rating (corn; [9]) | Corn plant response rating (corn; [10]) | S. Flatsedge plant response rating (smallflower flatsedge; [1]) | S. Flatsedge plant response rating (smallflower flatsedge; [2]) | S. Flatsedge plant response rating (smallflower flatsedge; [3]) | S. Flatsedge plant response rating (smallflower flatsedge; Rate 500 g/ha, Pre-emergence, flood test species, scale 0 to 10 (0 no effect, 10 complete control)) | B. signalgrass plant response rating (surinam grass; [6]) | B. signalgrass plant response rating (surinam grass; [10]) | Wheat plant response rating (wheat; [6]) | Wheat plant response rating (0 to 10 scale) (wheat; [7]) | Wheat plant response rating (wheat; [8]) | Rape plant response rating (rape; [5]) | Rape plant response rating (rape; [6]) | Rape plant response rating (0 to 10 scale) (rape; [7]) | Rape plant response rating (rape; [10]) | Plant response rating, Rape (rape; [11]) | Cocklebur plant response rating (cocklebur; [5]) | Cocklebur plant response rating (cocklebur; [6]) | Cocklebur plant response rating (0 to 10 scale) (cocklebur; [7]) | Cocklebur plant response rating (cocklebur; [8]) | Cocklebur plant response rating (cocklebur; [9]) | Cocklebur plant response rating (cocklebur; [10]) | Plant response rating, Cocklebur (cocklebur; [11]) | Cocklebur plant response rating (cocklebur; [12]) | Giant foxtail plant response rating (giant foxtail; [10]) | Sugarbeets plant response rating (sugar beet; [5]) | Sugarbeets plant response rating (sugar beet; [6]) | Sugarbeets plant response rating (sugar beet; [10])
3: Morningglory plant response rating (morningglory; [5]) | Morningglory plant response rating (morningglory; [9]) | Morningglory plant response rating (morningglory; [10]) | Plant response rating, Morningglory (morningglory; [11]) | Plant response rating, Wild oats (wild oat; [11]) | Wild oats plant response rating (wild oat; [12]) | Plant response rating, Corn (corn; [11]) | Corn plant response rating (corn; [12]) | Wheat plant response rating (wheat; [12]) | Plant response rating, Sugarbeets (sugar beet; [11])
5: Plant response rating, B. signalgrass (surinam grass; [11]) | Plant response rating, Giant foxtail (giant foxtail; [11])
4: Morningglory plant response rating (morningglory; [12]) | Plant response rating, Redroot pigweed (pigweed; [11]) | Redroot pigweed plant response rating (pigweed; [12]) | Wild oats plant response rating (wild oat; [6]) | Wild oats plant response rating (0 to 10 scale) (wild oat; [7]) | Wild oats plant response rating (wild oat; [8]) | B. signalgrass plant response rating (0 to 10 scale) (surinam grass; [7]) | Crabgrass plant response rating (crabgrass; [5]) | Crabgrass plant response rating (crabgrass; [6]) | Rape plant response rating (rape; [8]) | Sugarbeets plant response rating (0 to 10 scale) (sugar beet; [7]) | Sugarbeets plant response rating (sugar beet; [8]) | Sugarbeets plant response rating (sugar beet; [9])
2: Redroot pigweed plant response rating (pigweed; [5]) | Wheat plant response rating (wheat; [9]) | Plant response rating, Wheat (wheat; [11]) | Crabgrass plant response rating (crabgrass; [10]) | Rape plant response rating (rape; [12])
1: Plant response rating, Barnyardgrass (bamyardgrass; [4]) | Redroot pigweed plant response rating (pigweed; [9]) | B. signalgrass plant response rating (surinam grass; [5]) | Giant foxtail plant response rating (giant foxtail; [5])
8: B. signalgrass plant response rating (surinam grass; Rate 500 g/ha, Postemergence, scale 0 to 10, 0 no effect, 10 complete control) | Crabgrass plant response rating (crabgrass; [8]) | Crabgrass plant response rating (crabgrass; [9]) | Giant foxtail plant response rating (giant foxtail; [8]) | Giant foxtail plant response rating (giant foxtail; [12])
10: Rape plant response rating (rape; [9])
9: Plant response rating, Crabgrass (crabgrass; [11]) | Crabgrass plant response rating (crabgrass; [12]) | Giant foxtail plant response rating (giant foxtail; [9])
6: Wild oats plant response rating (wild oat; [9]) | B. signalgrass plant response rating (surinam grass; [8]) | B. signalgrass plant response rating (surinam grass; [9]) | Giant foxtail plant response rating (giant foxtail; [6]) | Sugarbeets plant response rating (sugar beet; [12])
